BindingDB's records for PubMed 37713805 (University of Michigan)
pKi: −log10 of the molar value.

Target: Mitogen-activated protein kinase kinase kinase 12 (Homo sapiens) (UniProt Q12852)
Test: Binding affinity to DLK (unknown origin) assessed as inhibition constant

Mitogen-activated protein kinase kinase kinase 12 (Homo sapiens), sequence (Q12852 whole entry, looked up): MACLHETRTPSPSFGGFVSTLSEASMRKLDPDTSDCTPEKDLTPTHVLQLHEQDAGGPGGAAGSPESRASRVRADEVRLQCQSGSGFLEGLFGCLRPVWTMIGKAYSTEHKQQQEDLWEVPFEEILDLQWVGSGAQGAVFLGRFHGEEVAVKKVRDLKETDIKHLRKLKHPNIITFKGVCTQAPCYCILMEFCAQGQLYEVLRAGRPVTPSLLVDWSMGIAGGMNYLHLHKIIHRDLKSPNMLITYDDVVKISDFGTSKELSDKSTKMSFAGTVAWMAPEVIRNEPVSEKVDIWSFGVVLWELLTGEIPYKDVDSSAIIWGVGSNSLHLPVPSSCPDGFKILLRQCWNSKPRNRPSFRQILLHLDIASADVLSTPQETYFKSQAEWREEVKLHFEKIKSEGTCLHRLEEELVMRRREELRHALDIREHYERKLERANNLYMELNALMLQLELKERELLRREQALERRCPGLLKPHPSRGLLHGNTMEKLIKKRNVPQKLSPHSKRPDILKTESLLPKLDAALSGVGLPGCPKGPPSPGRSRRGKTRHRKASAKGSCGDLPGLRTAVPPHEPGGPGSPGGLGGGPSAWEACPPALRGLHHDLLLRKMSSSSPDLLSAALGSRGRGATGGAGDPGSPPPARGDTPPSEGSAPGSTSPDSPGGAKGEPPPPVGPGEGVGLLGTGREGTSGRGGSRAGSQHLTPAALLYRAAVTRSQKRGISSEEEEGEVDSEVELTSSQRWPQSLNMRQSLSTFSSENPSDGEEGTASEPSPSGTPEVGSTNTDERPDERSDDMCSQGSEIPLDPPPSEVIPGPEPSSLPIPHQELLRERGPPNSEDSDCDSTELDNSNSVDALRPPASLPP

Compound: CC(=O)N1CCC(c2cc(Nc3cc(C#N)ccn3)nc(N3CCC(F)(F)C3)c2)CC1
- pKi: 7.60
